In patent publication US20110045103A1, “METHODS FOR TREATING AIDS” (priority 2009, published 2011):

What was measured:
[1] = system: human immunodeficiency virus (HIV) Type I, strain HTLV-IIIB; experiment: Virucidal efficacy assay: virus suspension exposed to test composition, then titered by infectivity (CPE) in MT-2 cells; assay type: cell-based, HIV Type 1
Procedure: Composition Tested: A 20 mL vial of ammonium chloride (100 mEq/5 mL) was dissolved into a 1 liter bag of 0.9% sodium chloride injection USP (9 g/L sodium chloride; osmolarity of 308 mOsmol/L; 154 mEq/L sodium; 154 mEq/L chloride). The contents of the bag were transferred to a sterile glass bottle. The solution was equilibrated to room temperature prior to use.
Virus: human immunodeficiency virus (HIV) Type I, strain HTLV-IIIB, was obtained from Advanced Biotechnologies, Inc., Columbia, Md. Stock virus was prepared by collecting the supernatant culture fluid from infected culture cells. The cells were disrupted and cell debris removed by centrifugation at approximately 2200 RPM for ten minutes at room temperature. The supernatant was removed, aliquoted, and the high titer stock virus was stored at ≦−70° C. until the day of use. On the day of use, an aliquot of stock virus was removed, thawed, and maintained at a refrigerated temperature until used in the assay. The stock virus culture was adjusted to contain 5% fetal bovine serum as the organic soil lead.
(§1) Test Cultures: MT-2 cells (human T-cell leukemia cells) were obtained through the AIDS Research and Reference Reagent Program, Division of AIDS, NIAID, NIH from Dr. Douglas Richman. Cultures were maintained and used in suspension in tissue culture labware at 36-38° C. in a humidified atmosphere of 5-7% CO2.
Test Medium: The test medium used for the assay was RPMI 1640 supplemented with 10% (v/v) heat-inactivated fetal bovine serum (FBS). The medium was also supplemented with 2.0 mM L-glutamine and 50 μg/mL gentamicin.
Treatment of Virus Suspension: A 1.80 mL aliquot of the test substance was dispensed into a sterile tube and mixed with a 0.2 mL aliquot of the stock virus suspension. The mixture was vortex mixed for 10 seconds and held for the remainder of the specified exposure time at 37.0° C. The exposure time was ten minutes. Following the exposure time, a 0.1 mL aliquot was removed from the tube and the mixture was immediately titered by 10-fold serial dilution (0.1 mL+0.9 mL test medium) and assayed for the presence of virus in MT-2 cells. To decrease the test substance cytotoxicity, the first dilution was made in FBS with the remaining dilutions in test medium.
Treatment of Virus Control: A 0.2 mL aliquot of stock virus suspension was exposed to a 1.80 mL aliquot of test medium, in lieu of test substance, and treated as previously described. Following the exposure time, a 0.1 mL aliquot was removed from the tube and the mixture was immediately titered by 10-fold serial dilution (0.1 mL+0.9 mL test medium) and assayed for the presence of virus in MT-2 cells. All controls employed the FBS neutralizer as described in the Treatment of Virus Suspension section above. The virus control titer was used as a baseline to compare the percent and log reductions of the test parameter following exposure to the test substance.
Cells in the multiwall culture dishes were inoculated in quadruplicate with 0.2 mL of the dilutions prepared from test and control groups. Uninfected indicator cell cultures (cell controls) were inoculated with test medium alone. The cultures were incubated at 36-38° C. in a humidified atmosphere of 5-7% CO2 in sterile disposable cell culture labware. The cultures were scored periodically for eight days for the absence or presence of CPE, cytotoxicity, and for viability.
(§2) Data analysis: Viral and cytotoxicity titers are expressed as −log 10 of the 50 percent titration endpoint for infectivity (TCID50) or cytotoxicity (TCD50), respectively, as calculated by the method of Spearman Karber: […]
Calculation of Percent (%) Reduction:
Calculation of Log Reduction:
TCID50 of the virus control—TCID50 of the test substance=Log reduction Study Acceptance Criteria: A valid test required the following: (1) that stock virus be recovered from the virus control; (2) that the cell controls be negative for virus; and (3) that negative cultures are viable.

[2] = system: MT-2 cells (human T-cell leukemia cells); experiment: Cytotoxicity control of the virucidal assay; assay type: cell-based; conditions: ten minute exposure
Procedure: as §1
Cytotoxicity Control: A 1.80 mL aliquot of the test substance was mixed with a 0.2 mL aliquot of test medium containing the BSA organic soil load, in lieu of virus, and treated as previously described. The cytotoxicity control was held for the ten minute exposure time. […] The cytotoxicity of the MT-2 cell cultures was scored at the same time as virus-test substance and virus control cultures. Cytotoxicity was graded on the basis of cell viability as determined microscopically. […]
Cells in the multiwall culture dishes were inoculated in quadruplicate with 0.2 mL of the dilutions prepared from test and control groups. […] The cultures were scored periodically for eight days for the absence or presence of CPE, cytotoxicity, and for viability.
as §2

[3] = ten minute exposure at 37° C., 5% fetal bovine serum, compared to virus control

SMILES: Cl.N [Ammonium Chloride, ammonium chloride]
- Presence of test virus, four cultures ([1]; dilution 10^-2, after ten minute exposure): + + + +
- Presence of test virus, four cultures ([1]; dilution 10^-3, after ten minute exposure): + + + +
- Presence of test virus, four cultures ([1]; dilution 10^-4, after ten minute exposure): + + + +
- Log10 Reduction in viral titer [1, 3]: 1.0 Log10
- Percent Reduction in viral titer [1, 3]: 90.0%
- Percent Reduction in viral titer ([1]; ten minute exposure at 37° C., 5% fetal bovine serum, compared to virus control, listed as ammonium chloride): 90%
- test virus infectivity detected in the virus-test substance mixture ([1]; ten minute exposure at 37° C., virus control titer 6.0 log 10): 5.0 log 10
- Test substance cytotoxicity (not observed at any dilution tested) [2]: ≤ 1.5 log 10
